Experimental data reported in patent US10131669B2, “Pyrazolopyrimidine compounds” (Pfizer Inc., priority 2014, dated 2018).
pIC50: −log10 of the molar value. Structures can show the parent of a compound that is named as a salt. Where two headings read alike, the source gives them in different places.

Key:
Format in all cases: biochemical
Human PDE4A3 = target: T1, Human PDE4A3 (Homo sapiens, UniProt P27815); test: PDE4A3 Scintillation Proximity Assay (SPA), inhibition of enzyme activity; conditions: geometric mean of 2-7 determinations unless otherwise indicated (b: ≥8 determinations; c: single determination), 1 μM cAMP, 30 min at 25° C., read-out: Human PDE4A FL
T1 construct: His6 (N); FLAG (C); made in house; host or cells: insect cells (baculovirus, pFastBac)
T1 sequence (P27815 2-825 isoform P27815-6): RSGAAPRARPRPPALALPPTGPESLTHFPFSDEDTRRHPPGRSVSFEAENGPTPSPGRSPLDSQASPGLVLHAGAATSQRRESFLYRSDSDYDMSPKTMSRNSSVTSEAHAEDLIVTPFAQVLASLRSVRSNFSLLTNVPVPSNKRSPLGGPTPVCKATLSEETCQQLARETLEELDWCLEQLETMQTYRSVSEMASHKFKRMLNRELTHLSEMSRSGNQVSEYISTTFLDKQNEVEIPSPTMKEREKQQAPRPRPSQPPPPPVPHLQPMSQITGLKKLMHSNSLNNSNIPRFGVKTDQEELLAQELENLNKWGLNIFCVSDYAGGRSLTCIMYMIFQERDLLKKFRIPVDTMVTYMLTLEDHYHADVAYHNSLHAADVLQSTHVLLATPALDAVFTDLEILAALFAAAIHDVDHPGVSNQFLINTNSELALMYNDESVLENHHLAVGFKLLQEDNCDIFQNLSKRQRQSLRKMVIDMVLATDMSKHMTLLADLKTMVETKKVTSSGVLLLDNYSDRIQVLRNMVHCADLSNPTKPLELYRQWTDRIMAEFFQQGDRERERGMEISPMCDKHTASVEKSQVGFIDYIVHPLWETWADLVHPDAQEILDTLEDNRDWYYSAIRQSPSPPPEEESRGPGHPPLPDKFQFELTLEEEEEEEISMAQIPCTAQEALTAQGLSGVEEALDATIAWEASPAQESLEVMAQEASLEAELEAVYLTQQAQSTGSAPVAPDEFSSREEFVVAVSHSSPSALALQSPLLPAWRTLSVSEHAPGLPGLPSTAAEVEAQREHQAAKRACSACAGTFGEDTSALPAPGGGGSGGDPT
Text: (§1) Human PDE4A3 coding sequence (amino acids 2 to 825 from the sequence with accession number NP_001104779) was cloned into the baculovirus expression vector pFastBac (Invitrogen) engineered to include an N-terminal His6 affinity tag and a c-terminal FLAG affinity tag to aid in purification. The recombinant Bacmid was isolated and used to transfect insect cells to generate a viral stock. To generate cell paste for purification, insect cells were infected with the virus stock and cells were harvested 72 hours after infection. Insect cell paste was lysed and after centrifugation, the supernatant was batch bound to Ni-NTA agarose (GE Healthcare) and eluted with 250 mM imidazole. This eluate was diluted with FLAG buffer (50 mM Tris HCL pH 7.5, 100 mM NaCl, 5% Glycerol, 1 mM TCEP with protease inhibitors) and batch bound to ant-FLAG M2 agarose (Sigma) overnight at 4° C. The agarose was packed into a column, washed with buffer and eluted with buffer containing elute using 250 ug/ml Flag-peptide. Fractions were analyzed using SDS-PAGE Coomassie blue staining and pooled based on purity. Pooled fractions were chromatographed on a S200 120 ml column (GE Healthcare) in 50 mM Tris HCL pH 7.5, 150 mM NaCl, 10% Glycerol, 2 mM TCEP with protease inhibitors. PDE4A3 fractions were analyzed by SDS-PAGE Coomassie blue staining, pooled based on purity, dialyzed against 50 mM Tris HCL pH 7.5, 100 mM NaCl, 20% Glycerol, 2 mM TCEP, frozen and stored at −80° C.
(§2) The PDE4A3, PDE4B1, PDE4C1 and PDE4D3 assays use the Scintillation Proximity Assay (SPA) technology to measure the inhibition of human recombinant […], PDE4C1, and PDE4D3 enzyme activity by compounds in vitro. The PDE4A1, PDE4B3, PDE4C1, and PDE4D3 assays are run in parallel using identical parameters, except for the concentration of enzyme (80 pM PDE4A3, 40 pM PDE4B3, 40 pM PDE4C1 and 10 pM PDE4D). The assays are performed in a 384-well format with 50 uL assay buffer (50 mM TRIS pH7.5; 1.3 mM MgCl2; 0.01% Brij) containing enough PDE4A3, PDE4B1, PDE4C1, and PDE4D to convert ˜20% of substrate (1 μM cAMP consisting of 20 nM 3H-cAMP+[…] cold cAMP) and a range of inhibitors. Reactions are incubated for 30 min at 25° C. The addition of 20 uL of 8 mg/ml yitrium silicate SPA beads (Perkin Elmer) stops the reaction. The plates are sealed (TopSeal, Perkin Elmer) and the beads are allowed to settle for 8 hrs, after which they are read on the Trilux Microbeta overnight.

Human PDE4B1 = target: T2, Human PDE4B1 (Homo sapiens, UniProt Q07343, S133E/S654A/S659A/S661A); test: PDE4B1 Scintillation Proximity Assay (SPA), inhibition of enzyme activity
T2 construct: His6 (N); thrombin cleavage site (N); made in house; host or cells: insect cells (baculovirus, pFastBac)
T2 sequence (Q07343 122-736 S133E/S654A/S659A/S661A): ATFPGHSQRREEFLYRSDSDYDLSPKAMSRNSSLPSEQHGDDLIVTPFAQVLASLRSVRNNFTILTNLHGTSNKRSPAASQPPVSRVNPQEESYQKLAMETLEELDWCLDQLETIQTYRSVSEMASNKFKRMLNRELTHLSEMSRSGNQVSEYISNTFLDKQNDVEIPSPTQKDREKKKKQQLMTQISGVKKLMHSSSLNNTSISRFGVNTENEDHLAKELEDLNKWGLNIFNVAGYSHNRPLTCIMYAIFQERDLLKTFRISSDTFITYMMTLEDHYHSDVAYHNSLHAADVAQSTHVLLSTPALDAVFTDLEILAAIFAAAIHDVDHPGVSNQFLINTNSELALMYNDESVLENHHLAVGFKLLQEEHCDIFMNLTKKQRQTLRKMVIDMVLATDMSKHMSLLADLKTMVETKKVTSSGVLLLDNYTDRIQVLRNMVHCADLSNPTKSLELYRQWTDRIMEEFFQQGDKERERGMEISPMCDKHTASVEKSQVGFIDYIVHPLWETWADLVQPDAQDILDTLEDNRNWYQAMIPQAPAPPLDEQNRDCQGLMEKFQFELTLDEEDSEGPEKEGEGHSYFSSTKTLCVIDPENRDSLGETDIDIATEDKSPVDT
Procedure: The recombinant Bacmid was isolated and used to transfect insect cells to generate a viral stock. To generate cell paste for purification, insect cells were infected with the virus stock and cells were harvested 72 hours after infection as described in Seeger, T. F. et al., Brain Research 985 (2003) 113-126. Insect cell paste was lysed and after centrifugation, the supernatant was chromatographed on Ni-NTA agarose (Qiagen) as described in Seeger, T. F. et al., Brain Research 985 (2003) 113-126. Ni-NTA agarose eluting fractions containing PDE4 were pooled, diluted with Q buffer A (20 mM Tris HCl pH 8, 5% glycerol, 1 mM TCEP) to reduce NaCl to ˜100 mM and loaded on a Source 15Q (GE Healthcare) column. After washing with Q buffer A/10% buffer B to baseline, PDE4D was eluted with a gradient from 10% to 60% of Buffer B (20 mM Tris HCl pH 8, 1 M NaCl, 5% glycerol, 1 mM TCEP). PDE4D fractions were analyzed by SDS-PAGE Coomassie blue staining, pooled based on purity, frozen and stored at −80° C.
as §2

Human PDE4C1 = target: T3, Human PDE4C1 (Homo sapiens, UniProt Q08493); test: PDE4C1 Scintillation Proximity Assay (SPA), inhibition of enzyme activity; conditions: geometric mean of 2-7 determinations unless otherwise indicated (b: ≥8 determinations; c: single determination), 1 μM cAMP, 30 min at 25° C., read-out: Human PDE4C FL
T3 construct: His6 (N); FLAG (C); made in house; host or cells: insect cells (baculovirus, pFastBac)
T3 sequence (Q08493 2-712): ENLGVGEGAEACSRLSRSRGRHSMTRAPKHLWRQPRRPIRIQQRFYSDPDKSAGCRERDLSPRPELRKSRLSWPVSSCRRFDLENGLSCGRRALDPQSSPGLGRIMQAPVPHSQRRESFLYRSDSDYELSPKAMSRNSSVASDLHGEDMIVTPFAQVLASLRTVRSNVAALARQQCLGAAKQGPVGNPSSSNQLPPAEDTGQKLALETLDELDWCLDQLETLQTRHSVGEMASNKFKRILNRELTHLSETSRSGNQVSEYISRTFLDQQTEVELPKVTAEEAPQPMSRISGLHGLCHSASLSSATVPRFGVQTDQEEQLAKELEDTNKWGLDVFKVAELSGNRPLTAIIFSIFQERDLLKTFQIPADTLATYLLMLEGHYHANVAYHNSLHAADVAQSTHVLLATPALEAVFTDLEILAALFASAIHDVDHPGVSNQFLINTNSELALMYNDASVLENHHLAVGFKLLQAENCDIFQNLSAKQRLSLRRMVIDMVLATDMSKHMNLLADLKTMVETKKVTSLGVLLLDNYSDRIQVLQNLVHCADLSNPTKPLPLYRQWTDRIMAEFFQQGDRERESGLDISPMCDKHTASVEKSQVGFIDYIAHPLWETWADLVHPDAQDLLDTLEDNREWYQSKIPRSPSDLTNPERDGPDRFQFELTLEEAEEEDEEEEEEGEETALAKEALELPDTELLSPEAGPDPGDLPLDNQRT
Procedure: as §1, with “The” for “Human PDE4A3 coding sequence (amino acids 2 to 825 from the sequence with accession number NP_001104779) was cloned into the baculovirus expression vector pFastBac (Invitrogen) engineered to include an N-terminal His6 affinity tag and a c-terminal FLAG affinity tag to aid in purification. The”, “PDE4C1” for “PDE4A3”
as §2

human PDE4D3 = target: T4, human PDE4D3 (Homo sapiens, UniProt Q08499); test: PDE4D3 Scintillation Proximity Assay (SPA), inhibition of enzyme activity
T4 construct: His6 (C); made in house; host or cells: insect cells (baculovirus, pFastBac)
T4 sequence (Q08499 186-808): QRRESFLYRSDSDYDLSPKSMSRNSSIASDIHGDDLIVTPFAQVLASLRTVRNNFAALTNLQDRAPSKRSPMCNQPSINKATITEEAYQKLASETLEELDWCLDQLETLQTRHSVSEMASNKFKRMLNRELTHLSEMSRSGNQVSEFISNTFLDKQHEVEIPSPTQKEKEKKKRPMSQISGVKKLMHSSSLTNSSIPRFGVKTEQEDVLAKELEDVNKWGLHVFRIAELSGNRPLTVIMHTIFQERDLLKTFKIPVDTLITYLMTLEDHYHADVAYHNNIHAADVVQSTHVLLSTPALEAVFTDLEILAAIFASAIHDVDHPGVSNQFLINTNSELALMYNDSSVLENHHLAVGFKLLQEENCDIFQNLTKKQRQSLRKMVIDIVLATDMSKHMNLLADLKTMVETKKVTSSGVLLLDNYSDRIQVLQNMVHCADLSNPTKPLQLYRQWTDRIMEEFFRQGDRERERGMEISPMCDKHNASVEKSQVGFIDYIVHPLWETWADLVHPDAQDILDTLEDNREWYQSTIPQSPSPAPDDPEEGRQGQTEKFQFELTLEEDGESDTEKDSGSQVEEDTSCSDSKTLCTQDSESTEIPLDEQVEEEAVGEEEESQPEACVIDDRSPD
Procedure: The recombinant Bacmid was isolated and used to transfect insect cells to generate a viral stock. To generate cell paste for purification, insect cells were infected and cells were harvested 72 hours after infection. Insect cell paste was lysed and after centrifugation, the supernatant was chromatographed on Ni-NTA agarose (Qiagen) as described in Seeger, T. F. et al., Brain Research 985 (2003) 113-126. Ni-NTA agarose eluting fractions containing PDE4 were pooled, diluted with Q Buffer A (50 mM Tris HCl pH 8, 4% glycerol, 100 mM NaCl, 1 mM TCEP, Protease inhibitors EDTA-free (Roche)) to reduce NaCl to ˜200 mM, and loaded on a Q Sepharose (GE Healthcare) column. After washing with Q buffer A to baseline, PDE4D was eluted with a gradient from 10% to 60% of Buffer B (50 mM Tris HCl pH 8, 1 M NaCl, 4% glycerol, 1 mM TCEP). PDE4D fractions were analyzed by SDS-PAGE Coomassie blue staining, pooled based on purity, frozen and stored at −80° C.
as §2

[1] = geometric mean of 2-7 determinations unless otherwise indicated (b: ≥8 determinations; c: single determination), 1 μM cAMP, 30 min at 25° C., read-out: Human PDE4B FL, IC50
[2] = geometric mean of 2-7 determinations unless otherwise indicated (b: ≥8 determinations; c: single determination), 1 μM cAMP, 30 min at 25° C., read-out: Human PDE4D FL, IC50

Row | SMILES | pIC50 (Human PDE4A3) | pIC50 (Human PDE4B1; [1]) | pIC50 (Human PDE4C1) | pIC50 (human PDE4D3; [2]) | pIC50 (Human PDE4B1) | pIC50 (human PDE4D3)
1 | O=C(c1nn2cccnc2c1-c1ccc(Cl)cc1)N1CCC1 [Example 1, Azetidin-1-yl[3-(4-chlorophenyl)pyrazolo[1,5-a]pyrimidin-2-yl]methanone] | 7.75 | 7.28 | 7.07 | < 5.03 | – | –
2 | CCCNC(=O)c1nn2cccnc2c1-c1ccc(Cl)cc1 [Example 2, 3-(4-Chlorophenyl)-N-propylpyrazolo[1,5-a]pyrimidine-2-carboxamide] | 7.21 | 7.46 | 7.22 | 5.38 | – | –
3 | CCCC(=O)Nc1nn2cccnc2c1-c1ccc(Cl)c(F)c1 [Example 4, N-[3-(4-Chloro-3-fluorophenyl)pyrazolo[1,5-a]pyrimidin-2-yl]butanamide] | 6.26 | 6.05 | 5.81 | < 4.52 | – | –
4 | O=C(NC1CC1)c1nn2cccnc2c1-c1ccc(Cl)c(F)c1 [Example 5, 3-(4-Chloro-3-fluorophenyl)-N-cyclopropylpyrazolo[1,5-a]pyrimidine-2-carboxamide] | 8.48 | 8.23 | 7.74 | 6.18 | – | –
5 | Cc1cc(Cl)ccc1-c1c(C(=O)NC2CC2)nn2cccnc12 [Example 6, 3-(4-Chloro-2-methylphenyl)-N-cyclopropylpyrazolo[1,5-a]pyrimidine-2-carboxamide] | 7.54 | 7.26 | 7.18 | < 4.98 | – | –
6 | O=C(NC1CC1)c1nn2cc(F)cnc2c1-c1ccc(Cl)cc1 [Example 7, 3-(4-Chlorophenyl)-N-cyclopropyl-6-fluoropyrazolo[1,5-a]pyrimidine-2-carboxamide] | 8.06 | 7.79 | 7.63 | 5.97 | – | –
7 | O=C(Nc1ncccn1)c1nn2cccnc2c1-c1ccc(Cl)cc1 [Example 8, 3-(4-Chlorophenyl)-N-(pyrimidin-2-yl)pyrazolo[1,5-a]pyrimidine-2-carboxamide] | 6.72 | 5.96 | 6.02 | < 4.60 | – | –
8 | O=C(c1nn2cc(F)cnc2c1-c1ccc(Cl)cc1)N1CCC1 [Example 9, Azetidin-1-yl[3-(4-chlorophenyl)-6-fluoropyrazolo[1,5-a]pyrimidin-2-yl]methanone, Formate Salt] | 7.78 | – | 7.26 | – | 7.46 | 5.43
9 | O=C(NC1CC1)c1nn2cccnc2c1-c1ccc(Cl)cc1 [Example 10, 3-(4-chlorophenyl)-N-cyclopropylpyrazolo[1,5-a]pyrimidine-2-carboxamide] | 7.60 | 7.01 | 7.37 | 5.23 | – | –
10 | O=C(NC1CC1)c1nn2cccnc2c1-c1cncc(Cl)c1 [Example 29, 3-(5-chloropyridin-3-yl)-N-cyclopropylpyrazolo[1,5-a]pyrimidine-2-carboxamide] | – | 6.88 | – | 5.52 | – | –
11 | O=C(Nc1nn2cccnc2c1-c1ccc(Cl)c(F)c1)c1ccccc1 [Example 30, N-[3-(4-chloro-3-fluorophenyl)pyrazolo[1,5-a]pyrimidin-2-yl]benzamide] | – | 5.66 | – | 4.57 | – | –
12 | O=C(NC1CC1)c1nn2cccnc2c1-c1ccc(Cl)c(Cl)c1 [Example 32, N-cyclopropyl-3-(3,4-dichlorophenyl)pyrazolo[1,5-a]pyrimidine-2-carboxamide, hydrochloride salt] | – | 8.00 | – | 6.14 | – | –
13 | O=C(c1nn2cccnc2c1-c1ccnc(OC(F)F)c1)N1CCC1 [Example 37, azetidin-1-yl{3-[2-(difluoromethoxy)pyridin-4-yl]pyrazolo[1,5-a]pyrimidin-2-yl}methanone] | – | 7.50 | – | 6.16 | – | –
14 | O=C(NC1CC1)c1nn2cccnc2c1-c1ccnc(OC(F)F)c1 [Example 38, N-cyclopropyl-3-[2-(difluoromethoxy)pyridin-4-yl]pyrazolo[1,5-a]pyrimidine-2-carboxamide, formate salt] | – | 7.29 | – | 6.15 | – | –
15 | O=C(NC1CC1(F)F)c1nn2cccnc2c1-c1ccc(Cl)cc1 (stereo not drawn) [Example 40, 3-(4-chlorophenyl)-N-(2,2-difluorocyclopropyl)pyrazolo[1,5-a]pyrimidine-2-carboxamide] | – | 7.17 | – | 5.63 | – | –
16 | O=C(c1nn2cccnc2c1-c1cc(F)c(Cl)c(F)c1)N1CCC1 [Example 41, azetidin-1-yl[3-(4-chloro-3,5-difluorophenyl)pyrazolo[1,5-a]pyrimidin-2-yl]methanone] | – | 8.27 | – | 6.46 | – | –
17 | O=C(c1nn2cccnc2c1-c1cc(Cl)ccc1F)N1CCC1 [Example 74, azetidin-1-yl[3-(5-chloro-2-fluorophenyl)pyrazolo[1,5-a]pyrimidin-2-yl]methanone] | – | 7.34 | – | 5.22 | – | –
18 | N#Cc1ccc(-c2c(C(=O)NC3CC3)nn3cccnc23)c(F)c1 [Example 76, 3-(4-cyano-2-fluorophenyl)-N-cyclopropylpyrazolo[1,5-a]pyrimidine-2-carboxamide] | – | 6.35 | – | < 4.52 | – | –
